Assay results as given in patent publication US9115149B2, “Heterocyclic compounds as inhibitors of fatty acid biosysnthesis for bacterial infections” (Vitas Pharma Research Private Limited, priority 2011, dated 2015).
In brackets after ≈: the same amount, converted by molar mass. Read-outs that look alike come from different tables or passages of the source.

Columns and labels:
[1] = tested on: Methicillin resistant Staphylococcus aureus (ATCC 33591); test: MIC by microbroth dilution, methicillin resistant S. aureus; type: cell-based; settings: ATCC33591, read-out: Minimum inhibitory concentration (MIC) Methicillin resistant Staphylococcus aureus (ATCC 33591)
Procedure: (§1) Shown below are the biological activities of representative compounds of the invention. The compounds were tested by the microbroth dilution method (National committee for Clinical Laboratory Standards, M07-A8, Volume 29, 2009) to determine the Minimum Inhibitory Concentration (MIC) against Methicillin sensitive and resistant Staphylococcus aureus. The MICs in the presence of 10% BSA was also tested. Further, select compounds were tested for metabolic stability using mouse liver microsomes based on published protocols (Journal of Biological Sciences, 2008, 8, 1110-1114).

[2] = Pharmacokinetic profile in male Swiss albino mice; settings: mouse, in vivo; for AUC / clearance / half-life / Cmax: intravenous single dose 5 mg/kg body weight; for bioavailability: po
Procedure: The following compounds were dosed to male Swiss albino mice to determine the pharmacokinetic profiles.

[3] = tested on: Staphylococcus aureus (ATCC29213); test: MIC by microbroth dilution, methicillin sensitive S. aureus; type: cell-based; settings: read-out: Minimum inhibitory concentration (MIC) Staphylococcus aureus (ATCC29213)
Procedure: as §1

[4] = tested on: Bacillus subtilis (ΔFabI, ΔFabL; Pxylose SaFabI); test: Target specificity: MIC in B. subtilis expressing S. aureus FabI under xylose inducible promoter; type: cell-based
Procedure: To test for target specificity, the MIC was determined in a Bacillus subtilis strain in which the two FabI homologues (FabI and FabL) were deleted and replaced with S. aureus FabI (Sa FabI) under a Xylose inducible promoter. By varying the amount of xylose in the growth medium, the expression of FabI was proportionately modified. Compounds specifically targeting Sa FabI show an increased MIC when higher amounts of FabI are present in the cell (high Xylose concentrations). In contrast, when FabI levels are low, the cell becomes hypersusceptible, reducing the MIC (low Xylose concentrations). […] Shown below are data for target specificity.

[5] = tested on: Methicillin resistant Staphylococcus aureus (ATCC 33591); test: MIC in the presence of BSA; type: cell-based; settings: ATCC33591, 10% BSA
Procedure: as §1

[6] = Metabolic stability in mouse liver microsomes; type: in vitro ADME
Procedure: as §1

[7] = Mutation prevention concentration; type: cell-based
Procedure: The mutation prevention concentration or the concentration above which mutants are unlikely to be selected, was determined based on published protocols (Antimicrobial Agents and Chemotherapy, 45, 433-438, 2001).

E. coli ATCC 25922 = test: MIC against non-S. aureus strains; type: cell-based
Procedure: (§2) A subset of compounds was tested against non-S. aureus strains to determine the Minimum Inhibitory Concentration (MIC) against non-S. aureus species (National committee for Clinical Laboratory Standards, M07-A8, Volume 29, 2009).

[8] = tested on: S. epidermidis ATCC 12228; test: MIC against non-S. aureus strains; type: cell-based
Procedure: as §2

[9] = tested on: S. haemolyticus ATCC 29970; test: MIC against non-S. aureus strains; type: cell-based
Procedure: as §2

E. feacalis ATCC 29212 = test: MIC against non-S. aureus strains; type: cell-based
Procedure: as §2

M. catarrhalis ATCC 8176 = test: MIC against non-S. aureus strains; type: cell-based
Procedure: as §2

S. pneumoniae ATCC 6301 = test: MIC against non-S. aureus strains; type: cell-based
Procedure: as §2

H. influenzae ATCC 49247 = test: MIC against non-S. aureus strains; type: cell-based
Procedure: as §2

MRSA ATCC33591 = test: Systemic infection model in mice; type: in vivo
Procedure: In order to evaluate the in vivo efficacy of the scaffold, we tested representative compounds for activity in the systemic infection model in mice (Antimicrobial Agents and Chemotherapy, 47, 2507-2512, 2003). In this model, a 15× medial lethal dose of the bacteria (MRSA ATCC33591) was administered to mice intraperitoneally. 1 hour later, VT-02-00068 was administered i.v. at doses of 30, 10 and 3 mg/kg body weight. The compound was administered again 4 hours later. A total of 5 doses were administered, i.e. 2 doses on day 0, 2 on day 1 and 1 on day 2. […] The survival was 100, 100 and 65% at 30, 10 and 3 mg/kg body weight respectively.
VT-02-00044 was tested using the same protocol. The compound was dosed at 50 mg/kg body weight for 3 days, 2 doses per day.

[10] = read-out: MIC in the presence of 0.005% Xylose (low Xylose concentration)
[11] = read-out: MIC in the presence of 0.5% Xylose (high Xylose concentration)

| Compound | MIC [1] [ng/mL] | AUC [2] [ng·h/mL] | clearance [2] [mL/min/kg] | half-life [2] [h] | bioavailability [2] [%] | MIC [3] [ng/mL] | MIC [4, 10] [ng/mL] | MIC [4, 11] [ng/mL] | MIC [5] [ng/mL] | Metabolic stability (mouse liver microsomes) % of compound remaining after 30 minutes [6] [%] | Cmax [2] [ng/mL] | other results |
| --- | --- | --- | --- | --- | --- | --- | --- | --- | --- | --- | --- | --- |
| CCC1(CC)C(=O)Nc2ncc(/C=C/C(=O)N(C)Cc3sc4ccccc4c3C)cc21 [VT-02-00078, (E)-3-(3,3-diethyl-2-oxo-2,3-dihydro-1H-pyrrolo[2,3-b]pyridin-5-yl)-N-methyl-N-((3-methylbenzo[b]thiophen-2-yl)methyl)acrylamide] | 15 (≈ 0.0346 µM) | 1410 | 58.5 | 0.32 | 67.1 | 15 (≈ 0.0346 µM) | < 2.98e-05 | 1.91e-05 | 250 | 15 |  |  |
| Cc1c(CN(C)C(=O)/C=C/c2cnc3c(c2)C2(CCC2)C(=O)N3)c2ccccc2n1C [VT-02-00091, (E)-N-((1,2-dimethyl-1H-indol-3-yl)methyl)-N-methyl-3-(T-oxo-1′,2′-dihydrospiro[cyclobutane-1,3′-pyrrolo[2,3-b]pyridine]-5′-yl)acrylamide] | 15 (≈ 0.0362 µM) |  |  |  |  | 15 (≈ 0.0362 µM) |  | 0.061 | 120 | 21 |  | Mutation prevention concentration [7]: 0.06 µg/mL; MIC E. coli ATCC 25922 (E. coli ATCC 25922): > 16000 ng/mL; MIC S. epidermidis ATCC 12228 [8]: 15 ng/mL (≈ 0.0362 µM); MIC S. haemolyticus ATCC 29970 [9]: 15 ng/mL (≈ 0.0362 µM); MIC E. feacalis ATCC 29212 (E. feacalis ATCC 29212): > 16000 ng/mL; MIC M. catarrhalis ATCC 8176 (M. catarrhalis ATCC 8176): > 16000 ng/mL; MIC S. pneumoniae ATCC 6301 (S. pneumoniae ATCC 6301): > 32000 ng/mL; MIC H. influenzae ATCC 49247 (H. influenzae ATCC 49247): > 16000 ng/mL |
| CCn1c(=O)[nH]c2ncc(/C=C/C(=O)N(C)Cc3cc4ccccc4n3C)cc21 [VT-02-00044, (E)-3-(1-ethyl-2-oxo-2,3-dihydro-1H-imidazo[4,5-b]pyridin-6-yl)-N-methyl-N-((1-methyl-1H-indol-2-yl)methyl)acrylamide] | 1000 (≈ 2.57 µM) | 1040 | 75.9 | 1.65 | 29 | 500 (≈ 1.28 µM) | < 1.9 | 15 | 2000 | 50 | 949 | Survival (MRSA ATCC33591; 50 mg/kg body weight for 3 days, 2 doses per day): 100% |
| CCC1(CC)C(=O)Nc2ncc(/C=C/C(=O)N(C)Cc3oc4ccccc4c3C)cc21 [VT-02-00071, (E)-3-(3,3-diethyl-2-oxo-2,3-dihydro-1H-pyrrolo[2,3-b]pyridin-5-yl)-N-methyl-N-((3-methylbenzofuran-2-yl)methyl)acrylamide] | 15 (≈ 0.0359 µM) | 1220 | 67.8 | 0.52 | 26 | 15 (≈ 0.0359 µM) | 0.000477 | 0.06 | 250 | 12 | 1550 |  |
| Cc1c(CN(C)C(=O)/C=C/c2cnc3c(c2)C(C)(C)C(=O)N3)oc2ccccc12 [VT-02-00068, (E)-3-(3,3-dimethyl-2-oxo-2,3-dihydro-1H-pyrrolo[2,3-b]pyridin-5-yl)-N-methyl-N-((3-methylbenzofuran-2-yl)methyl)acrylamide] | 15 (≈ 0.0385 µM) | 10300 | 7.83 | 1.82 | 56.1 | 15 (≈ 0.0385 µM) | < 0.06 | 15 | 500 | 21 | 7850 | Mutation prevention concentration [7]: 0.5 ug/ml μg/ml; MIC E. coli ATCC 25922 (E. coli ATCC 25922): > 16000 ng/mL; MIC S. epidermidis ATCC 12228 [8]: 30 ng/mL (≈ 0.077 µM); MIC S. haemolyticus ATCC 29970 [9]: 250 ng/mL (≈ 0.642 µM); MIC E. feacalis ATCC 29212 (E. feacalis ATCC 29212): > 16000 ng/mL; MIC M. catarrhalis ATCC 8176 (M. catarrhalis ATCC 8176): > 16000 ng/mL; MIC S. pneumoniae ATCC 6301 (S. pneumoniae ATCC 6301): > 32000 ng/mL; MIC H. influenzae ATCC 49247 (H. influenzae ATCC 49247): > 16000 ng/mL; Survival (MRSA ATCC33591; 3 mg/kg body weight i.v., 5 doses, mortality observed for 7 days): 65%; Survival (MRSA ATCC33591; 10 mg/kg body weight i.v., 5 doses, mortality observed for 7 days): 100%; Survival (MRSA ATCC33591; 30 mg/kg body weight i.v., 5 doses, mortality observed for 7 days): 100% |
| Cc1c(CN(C)C(=O)/C=C/c2cnc3c(c2)C2(CCCCC2)C(=O)N3)sc2ccccc12 [VT-02-00075, (E)-N-methyl-N-((3-methylbenzo[b]thiophen-2-yl)methyl)-3-(2′-oxo-1′,2′-dihydrospiro[cyclohexane-1,3′-pyrrolo[2,3-b]pyridine]-5′-yl)acrylamide] | 500 (≈ 1.12 µM) |  |  |  |  | 500 (≈ 1.12 µM) | < 0.00191 | 0.00763 | 4000 | 5 |  |  |
| CN(Cc1cc2ccccc2n1C)C(=O)/C=C/c1cnc2c(c1)C(C)(C)C(=O)N2 [VT-02-00055, (E)-3-(3,3-dimethyl-2-oxo-2,3-dihydro-1H-pyrrolo[2,3-b]pyridin-5-yl)-N-methyl-N-((1-methyl-1H-indol-2-yl)methyl)acrylamide] | 250 (≈ 0.644 µM) |  |  |  |  | 250 (≈ 0.644 µM) | 60 | 2000 | 2000 | 40.3 |  |  |
| Cc1c(CN(C)C(=O)/C=C/c2cnc3c(c2)C(C)(C)C(=O)N3)sc2ccccc12 [VT-02-00069, (E)-3-(3,3-dimethyl-2-oxo-2,3-dihydro-1H-pyrrolo[2,3-b]pyridin-5-yl)-N-methyl-N-((3-methylbenzo[b]thiophen-2-yl)methyl)acrylamide] | 15 (≈ 0.037 µM) |  |  |  |  | 15 (≈ 0.037 µM) | 0.2 | 15 | 1000 | 10 |  |  |
| CCC1(CC)C(=O)Nc2ncc(/C=C/C(=O)N(C)Cc3cc4ccccc4n3C)cc21 [VT-02-00064, (E)-3-(3,3-diethyl-2-oxo-2,3-dihydro-1H-pyrrolo[2,3-b]pyridin-5-yl)-N-methyl-N-((1-methyl-1H-indol-2-yl)methyl)acrylamide] | 120 (≈ 0.288 µM) | 1400 | 59.4 | 0.44 | 51.5 | 120 (≈ 0.288 µM) | 30 | 250 | 1000 | 18 | 1810 |  |
| Cc1c(CN(C)C(=O)/C=C/c2cnc3c(c2)C2(CCC2)C(=O)N3)sc2ccccc12 [VT-02-00073, (E)-N-methyl-N-((3-methylbenzo[b]thiophen-2-yl)methyl)-3-(2′-oxo-1′,2′-dihydrospiro[cyclobutane-1,3′-pyrrolo[2,3-b]pyridine]-5′-yl)acrylamide] | 15 (≈ 0.0359 µM) | 7320 | 11.1 | 1.89 | 38.5 | 15 (≈ 0.0359 µM) | 0.00381 | 0.97 | 250 | 11 | 4380 |  |
